Data taken from ChEMBL document CHEMBL1201862, “PubChem BioAssay data set” (2004).
Calls of active or inactive are those of the source.

Tests used:
[1] = A549 cell viability loss – cherry-picked samples, cytotoxicity control, dose response (AID 1053184); format: functional, cell-based
[2] = P. falciparum Dd2 growth inhibitors, dose response, SYBR Green, cherry-picked samples (AID 1159567); format: functional, cell-based
[3] = HepG2 cell viability loss – cherry-picked samples, cytotoxicity control, dose response (AID 1053183); format: functional, cell-based
[4] = HEK293 cell viability loss – cherry-picked samples, cytotoxicity control, dose response (AID 1053185); format: functional, cell-based
[5] = toxicity to human hepatoma HepG2 cells – cell-based, cherry-picked samples, cytotoxicity control, dose response (AID 1159577); format: functional
Major prion protein = Major prion protein (Homo sapiens, UniProt P04156); format: functional, cell-based
[6] = target: T1, Small ubiquitin-related modifier 1 (Homo sapiens, UniProt P63165); test: SUMO1 protein-protein binding blockers, potency – biochemical, FRET, dose response (AID 624383); format: functional; settings: read-out: IC50_Mean
[7] = target: T2, Dual specificity protein phosphatase 3 (Homo sapiens, UniProt P51452); test: VHR1 phosphatase inhibitors, primary screen, biochemical, absorbance, uHTS (AID 1654)
[8] = target: Apoptotic protease-activating factor 1 (Homo sapiens, UniProt O14727); test: activation of Apaf-1 mediated apoptosis – fluorescent, uHTS hits, dose response (AID 588554); format: functional
[9] = target: 1-phosphatidylinositol 4,5-bisphosphate phosphodiesterase beta-3 (Homo sapiens, UniProt Q01970); test: Fluorescence-based biochemical high throughput dose response assay to identify inhibitors of phospholipase C isozymes (PLC-B3).
[10] = target: Induced myeloid leukemia cell differentiation protein Mcl-1 (Homo sapiens, UniProt Q07820); format: functional
[11] = target: T1, Small ubiquitin-related modifier 1; test: SUMO1 protein interaction blockers, potency – biochemical, fluorescence polarization, uHTS hits, dose response (AID 624382); format: functional; settings: read-out: IC50_Mean
[12] = target: T3, Bifunctional protein GlmU (Mycobacterium tuberculosis, UniProt P9WMN3); test: Inhibitors of Mycobacterial Glucosamine-1-phosphate acetyl transferase (GlmU). Secondary screen.; design: species or system Mycobacterium tuberculosis H37Rv
T3 sequence (P9WMN3 whole entry): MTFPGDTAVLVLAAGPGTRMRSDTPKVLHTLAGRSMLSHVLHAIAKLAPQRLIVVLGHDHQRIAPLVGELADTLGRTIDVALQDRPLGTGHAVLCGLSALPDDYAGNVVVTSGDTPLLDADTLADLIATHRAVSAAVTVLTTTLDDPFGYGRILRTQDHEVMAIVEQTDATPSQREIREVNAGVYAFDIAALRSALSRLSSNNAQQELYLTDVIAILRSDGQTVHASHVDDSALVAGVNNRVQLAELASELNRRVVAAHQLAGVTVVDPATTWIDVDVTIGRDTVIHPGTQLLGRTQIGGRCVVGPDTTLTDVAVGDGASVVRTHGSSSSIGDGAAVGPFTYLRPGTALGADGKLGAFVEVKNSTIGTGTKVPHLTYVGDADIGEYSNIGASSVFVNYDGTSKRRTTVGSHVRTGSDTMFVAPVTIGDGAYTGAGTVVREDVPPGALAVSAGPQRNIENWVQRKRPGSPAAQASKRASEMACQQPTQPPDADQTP

[13] = target: T2, Dual specificity protein phosphatase 3; test: VHR1 phosphatase inhibitors, biochemical (AID 1878)
[14] = target: T4, Dual specificity protein phosphatase 6 (Rattus norvegicus, UniProt Q64346); test: inhibition of rat DUSP6 enzyme activity – biochemical, in vitro, primary screen (AID 425)
T4 sequence (Q64346 whole entry): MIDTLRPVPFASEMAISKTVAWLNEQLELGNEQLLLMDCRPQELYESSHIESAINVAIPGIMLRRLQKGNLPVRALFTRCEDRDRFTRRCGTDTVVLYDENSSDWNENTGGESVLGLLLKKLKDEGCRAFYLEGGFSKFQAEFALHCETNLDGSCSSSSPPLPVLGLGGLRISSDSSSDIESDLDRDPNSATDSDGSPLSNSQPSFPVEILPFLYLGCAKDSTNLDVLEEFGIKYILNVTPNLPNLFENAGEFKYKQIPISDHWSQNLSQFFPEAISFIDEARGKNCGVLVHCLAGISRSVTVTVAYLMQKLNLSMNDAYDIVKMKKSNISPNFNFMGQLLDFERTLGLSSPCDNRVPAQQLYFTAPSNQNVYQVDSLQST

[15] = target: 1-phosphatidylinositol 4,5-bisphosphate phosphodiesterase gamma-1 (Homo sapiens, UniProt P19174); test: Counterscreen for inhibitors of phospholipase C isozymes (PLC-B3): Fluorescence-based biochemical high throughput dose response assay to identify inhibitors of phospholipase C isozymes (PLC-gamma1).
[16] = target: T5, Polyadenylate-binding protein 1 (Homo sapiens, UniProt P11940); test: MLLE domain peptide-binding blockers, IC50 – biochemical, fluorescence polarization, FITC-PAM2 peptide, dose response (AID 602259); format: functional; settings: read-out: IC50_Mean
[17] = target: T5, Polyadenylate-binding protein 1; test: MLLE binding blockers, Cy5 peptide tracer – biochemical, fluorescence polarization, Cy5-PAM2 peptide, secondary, miRNA deadenylation inhibitor project, dose response (AID 602260); format: functional; settings: read-out: IC50_Mean
Hexokinase HKDC1 = target: T6, Hexokinase HKDC1 (Homo sapiens, UniProt Q2TB90); test: inhibition of HKDC1 glucose phosphorylation – biochemical, W721R variant, dose response (AID 504729); format: functional
T6 sequence (Q2TB90 whole entry): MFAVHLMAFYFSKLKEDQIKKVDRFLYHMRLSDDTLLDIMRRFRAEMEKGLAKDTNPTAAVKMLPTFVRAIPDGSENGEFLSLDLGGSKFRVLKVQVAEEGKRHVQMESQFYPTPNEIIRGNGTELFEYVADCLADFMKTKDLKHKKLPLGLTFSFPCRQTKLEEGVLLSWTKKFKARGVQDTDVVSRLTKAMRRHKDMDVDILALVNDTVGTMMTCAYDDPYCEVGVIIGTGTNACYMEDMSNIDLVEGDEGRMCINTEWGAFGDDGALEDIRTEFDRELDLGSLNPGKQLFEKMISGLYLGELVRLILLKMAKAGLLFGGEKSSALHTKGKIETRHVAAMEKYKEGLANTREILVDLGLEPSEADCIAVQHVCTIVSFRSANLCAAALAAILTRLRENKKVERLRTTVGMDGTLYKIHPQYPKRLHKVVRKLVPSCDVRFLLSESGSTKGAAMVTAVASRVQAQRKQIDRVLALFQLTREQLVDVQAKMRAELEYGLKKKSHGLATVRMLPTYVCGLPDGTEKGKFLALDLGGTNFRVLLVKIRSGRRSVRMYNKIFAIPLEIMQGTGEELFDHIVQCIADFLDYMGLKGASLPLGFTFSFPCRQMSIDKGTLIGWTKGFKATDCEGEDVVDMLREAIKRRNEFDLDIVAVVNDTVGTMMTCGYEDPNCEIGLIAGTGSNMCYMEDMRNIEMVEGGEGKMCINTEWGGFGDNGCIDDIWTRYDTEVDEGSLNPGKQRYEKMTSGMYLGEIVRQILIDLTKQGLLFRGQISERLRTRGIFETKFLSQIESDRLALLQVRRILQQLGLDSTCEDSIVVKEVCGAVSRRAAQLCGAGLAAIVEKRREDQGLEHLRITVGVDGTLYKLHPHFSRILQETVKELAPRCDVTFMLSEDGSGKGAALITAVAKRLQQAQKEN

[18] = target: T7, Histone-lysine N-methyltransferase NSD2 (Homo sapiens, UniProt O96028); format: biochemical
T7 sequence (O96028 whole entry): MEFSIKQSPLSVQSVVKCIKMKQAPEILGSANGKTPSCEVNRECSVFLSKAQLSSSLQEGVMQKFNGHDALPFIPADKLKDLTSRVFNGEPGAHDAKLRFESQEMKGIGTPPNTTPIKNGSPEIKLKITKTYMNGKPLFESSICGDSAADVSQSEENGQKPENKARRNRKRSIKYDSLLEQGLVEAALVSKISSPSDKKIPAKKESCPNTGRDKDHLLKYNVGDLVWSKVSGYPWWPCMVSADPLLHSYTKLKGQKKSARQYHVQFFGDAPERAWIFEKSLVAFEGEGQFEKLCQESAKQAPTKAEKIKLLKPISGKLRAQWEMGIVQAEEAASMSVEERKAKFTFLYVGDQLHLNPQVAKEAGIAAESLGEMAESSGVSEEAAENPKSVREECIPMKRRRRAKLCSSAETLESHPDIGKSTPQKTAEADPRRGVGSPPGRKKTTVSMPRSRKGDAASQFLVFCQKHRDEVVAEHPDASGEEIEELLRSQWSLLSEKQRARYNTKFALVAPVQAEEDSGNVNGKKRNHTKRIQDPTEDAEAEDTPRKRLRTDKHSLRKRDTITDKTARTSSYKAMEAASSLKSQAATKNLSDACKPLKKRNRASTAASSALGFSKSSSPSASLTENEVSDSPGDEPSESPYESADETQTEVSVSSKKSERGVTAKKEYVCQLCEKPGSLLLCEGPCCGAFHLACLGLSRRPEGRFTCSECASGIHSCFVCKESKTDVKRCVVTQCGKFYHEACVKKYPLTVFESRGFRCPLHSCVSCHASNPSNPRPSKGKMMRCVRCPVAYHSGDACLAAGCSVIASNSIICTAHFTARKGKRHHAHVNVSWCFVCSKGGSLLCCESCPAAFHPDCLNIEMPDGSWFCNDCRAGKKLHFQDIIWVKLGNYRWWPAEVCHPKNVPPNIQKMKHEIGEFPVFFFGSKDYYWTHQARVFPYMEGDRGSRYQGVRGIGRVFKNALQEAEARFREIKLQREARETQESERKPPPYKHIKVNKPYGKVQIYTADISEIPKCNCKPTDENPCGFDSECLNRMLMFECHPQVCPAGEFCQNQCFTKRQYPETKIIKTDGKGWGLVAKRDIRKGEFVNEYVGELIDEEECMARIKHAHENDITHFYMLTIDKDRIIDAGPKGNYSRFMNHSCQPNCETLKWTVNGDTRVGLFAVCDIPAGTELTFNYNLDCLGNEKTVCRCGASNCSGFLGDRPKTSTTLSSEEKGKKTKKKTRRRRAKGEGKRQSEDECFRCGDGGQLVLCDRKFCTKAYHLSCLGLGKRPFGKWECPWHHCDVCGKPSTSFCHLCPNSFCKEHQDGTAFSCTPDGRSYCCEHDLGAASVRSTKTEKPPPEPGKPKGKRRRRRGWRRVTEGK

[19] = target: Photoreceptor-specific nuclear receptor (Homo sapiens, UniProt Q9Y5X4); format: functional, cell-based;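 further: CHO-S cells with Gal4-NCOR and VP16-NR2E3 two-hybrid luciferase reporter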
[20] = general cell-killing toxicity readout – plate reader, dry powder samples, cytotoxicity control for PAX8 inhibitor project, dose response (AID 743021); format: functional, cell-based
[21] = target: Tyrosyl-DNA phosphodiesterase 2 (Homo sapiens, UniProt O95551); test: potency against TDP2 phosphodiesterase activity – biochemical, epi absorbance, IC50, dose response (AID 743297)
Paired box protein Pax-8 = Paired box protein Pax-8 (Homo sapiens, UniProt Q06710); test: PAX8 transcriptional activity inhibition in RMG-I – RMG-I cells, luciferase, cherry-pick, dose response (AID 687027); format: functional, cell-based;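 further: luciferase reporter driven by Pax8 target thyroperoxidase promoter measured by SteadyGlo luminescence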

Structure (SMILES): C(=C\c1ccc([C@@H]2[C@@H]3CN(Cc4ccc5c(c4)OCO5)C[C@H]2N3)cc1)/c1ccccc1
- AC50 [1]: > 12 µM (inactive)
- AC50 [2]: 6.09 µM (active)
- AC50 [3]: 17.1 µM (active)
- AC50 [4]: 17 µM (active)
- AC50 [5]: 9.8 µM (active)

Structure (SMILES): CCCc1nc(SCC(=O)NNC(=O)c2ccc(OC)cc2)c2ccccc2n1
- IC50 (Major prion protein): 1.52 µM (active)
- IC50 (cells): > 138 µM (inactive)

Structure (SMILES): O=C(O)c1cccc(-c2ccc(/C=c3/sc4nc5ccccc5n4c3=O)o2)c1
- IC50 [6]: 8.7 µM (active)
- IC50 [7]: 4.98 µM (active)
- EC50 [8]: 9.48 µM (active)
- IC50 [9]: > 122 µM (inactive)
- IC50 [10]: 1.74 µM (active)
- IC50 [11]: > 66.6 µM (inactive)
- IC50 [12]: 101 µM (active)
- IC50 [13]: 2.27 µM (active)
- IC50 [14]: 118 µM (not active)
- IC50 [15]: > 122 µM (inactive)

Structure (SMILES): NC1=C(Br)C(=O)c2ncccc2C1=O
- IC50 [16]: > 66 µM (inactive)
- IC50 [17]: > 66 µM (inactive)
- IC50 (Hexokinase HKDC1): 8.91 µM (active)
- AC50 [18]: 0.164 µM (active)
- IC50 [19]: 2.48 µM (active)
- AC50 [20]: 10.1 µM (active)
- IC50 [21]: 2.66 µM (active)
- AC50 (Paired box protein Pax-8): 1.22 µM (active)
